The values below come from patent publication US20110112160A1, “TABLET COMPRISING EPROSARTAN MESYLATE” (LEK PHARMACEUTICALS D.D., priority 2008, published 2011).

The nature of data set [1]: Physical stability, form of eprosartan mesylate by X-ray diffraction (XRD). Format: physicochemical. The following applies: at ambient temperature and humidity. The protocol: During the dry granulation processes using different excipients from the list above, physical stability of the eprosartan mesylate anhydrate was investigated. […] The final tablet form and placebo powder were analyzed by X-ray diffraction (XRD) pattern to confirm presence of anhydrous form of eprosartan mesylate.
Diffractograms were collected on X'Pert PRO MPD diffractometer using CuKα radiation. Data were recorded from 2 do 40°2θ; in steps of 0.033°2θ; with the integration times 50 s (routine testing) and from 4 do 20°2θ; in steps of 0.033°2θ; with the integration times 2000 s (to achieve lower LOD). The range for measurements with longer integration times was chosen according to the known diffractograms of eprosartan mesylate crystalline forms, which all have characteristic peaks in the carefully measured range between 4 and 20°2theta.

A short description of data set [2]: Hygroscopicity and interconversion of forms at high relative humidity. Format: physicochemical. The conditions noted are these: at RH over 60%. From the text:
Eprosartan mesylate is hygroscopic (at RH over 60%).

For data set [3] the following is noted: background art; cited from earlier work.
For data set [4] the following is noted: at pH 2; typically; cited from earlier work.
The subject of the next data set is intestinal epithelium. The following applies: background art; cited from earlier work.
Another data set can be described thus: Flowability. Format: physicochemical. The following applies: drug per se; with sticking on punches.

For `CCCCc1ncc(/C=C(\Cc2cccs2)C(=O)O)n1Cc1ccc(C(=O)O)cc1.CS(=O)(=O)O` [Eprosartan mesylate in anhydrous form], the “physical and chemical stability” value in data set [1] was “physically and chemically stable”. The interconversion of form result in data set [2] is “interconverts to eprosartan mesylate mono- and later to dihydrate”.

As to `CCCCc1ncc(/C=C(\Cc2cccs2)C(=O)O)n1Cc1ccc(C(=O)O)cc1.CS(=O)(=O)O` [eprosartan mesylate, (E)-α-[2-n-butyl-1-[(4-carboxyphenyl)methyl]-1H-imidazol-5-yl]methylene-2-thiophenepropionic acid monomethanesulfonate], the bioavailability (in general, dose-corrected exposure relative to a reference, in per cent) in data set [3] is listed as 13%. Moreover, in data set [4], the solubility entry is given as “less than 0.1 mg/ml”. Besides, in the data set with intestinal epithelium, the “permeability across the intestinal epithelium” value is listed as “low permeability”. The hygroscopicity entry in data set [2] was “hygroscopic”. The flowability result in the data set “Flowability” is recorded as “below 0.15 g/sec”.
